The values that follow come from EP1181934A1, “INHIBITORS FOR OPTIC HYPOFUNCTION CAUSED BY OPTIC NERVE CELL INJURY INDUCED BY FACTORS OTHER THAN OPTIC CIRCULATORY DISORDER” (Senju Pharmaceutical Co., Ltd., priority 1999, dated 2000).

Assay [1] deals with ischemic retinal neurocyte disorder. The settings on record: calcium antagonists; experiment models such as high ocular pressure rat models and central retinal artery and vein ligation models; cited from earlier work.
Assay [2] deals with retinal ganglion cells. Description: cell death induction by increased intracellular calcium amount (kainic acid) in isolated retinal ganglion cells, MTT. In kind it is cell-based. The settings on record: retinal ganglion cells of 8-day-old rats, 5 mM calcium chloride, pH 6.0, 1 h pre-incubation with compound, then 200 µM kainic acid, vs cell death induction group, P<0.01 (Fig. 2). As to the method:
The retina was obtained from ten 8-day-old rats and treated with papain to give a cell suspension. Using a non-coat dish (TERUMO) and a dish (CORNING) coated with Thy-1.1 antibody (American Type Culture Collection, […]), retinal ganglion cells alone were isolated from the whole cells of the retina. The retinal ganglion cells on the dish were trypsinized and recovered. Then the recovered retinal ganglion cells were plated on a 96 well plate coated with poly-D-lysine and laminin at a concentration of 5000 cells/well/100 μl. The isolated retinal ganglion cells were divided for the normal group, cell death induction group and inventive compound administration group. As the cultures of the cell death induction group and inventive compound administration group, calcium chloride was added to Neurobasal medium (GIBCO) at a final concentration of 5 mM to adjust its pH to 6.0 and used. As the additives to the culture, 40 ng/ml BDNF (Pepro Tech), 40 ng/ml CNTF (Sigma), 5 μM Forskolin (Sigma), 1 mM glutamine (Wako), 50x B27 supplement (GIBCO) and Pen-strep (GIBCO) were added. For the inventive compound administration group, the inventive compound was added simultaneously with the plating of the cells and pre-incubated at 37°C for 1 h. After 1 h, kainic acid having a final concentration of 200 μM was added and the mixture was incubated at 37°C to induce cell death. […]

In assay [3] the test system is retinal ganglion cells. Description: central retinal artery and vein ligation model (ischemia/re-perfusion), retinal ganglion cell count. In kind it is in vivo. The settings on record: male SD rats; hemostasis 55 minutes; 10 µg/kg via the tail vein twice (15 min before hemostasis and immediately after declamping); day 7 from release from ischemia; vs ischemic re-perfusion group, P<0.027 (Fig. 1, n=6). On the procedure: Effect of the inventive compound on an ophthalmic nerve cell disorder in rats was tested using a central retinal artery and vein ligation model, which is a model for examining increase in a calcium amount in an optic nerve cell.
Male SD rats (body weight 150 g) were grouped into a normal group, ischemic re-perfusion group and inventive compound administration group. The ischemic re-perfusion group and the inventive compound administration group were anesthetized with pentobarbital 50 mg/kg, and the central retinal artery and vein were ligated with an arterial aneurysm clip for hemostasis for 55 minutes. At 7 days from declamping, eyeballs were removed and fixed with 4% formaldehyde to prepare a tissue sample. After embedding in paraffin according to a conventional method, a thin slice (2 µm thick) was prepared by horizontal section vertical to a surface of the retina including the optic disc, and stained with hematoxylin-eosin. The number of retinal ganglion cells per a 0.25 mm retina vertical section at a certain distance (1-2 mm) from the optic disc was counted under an optical microscope. As regards the normal group, the number of retinal ganglion cells was counted in the same manner only with exposure of the central retinal artery and vein and without hemostasis. […]
Significance was detected by the Student's t-Test.

Consider `Fc1ccc(C(c2ccc(F)cc2)N2CCN(C/C=C/c3ccccc3)CC2)cc1` [flunarizine], for which the “inhibition of ischemic retinal neurocyte disorder” value in assay [1] is “inhibited ischemic retinal neurocyte disorder”.
For the compound `C=CCN1CCN(CC(C)(C)COC(=O)C2=C(C)NC(C)=C(C(=O)OC)C2c2cccc([N+](=O)[O-])c2)CC1.Cl.Cl` (stereo not drawn) [inventive compound, 3-(4-allyl-1-piperazinyl)-2,2-dimethylpropyl methyl 2,6-dimethyl-4-(m-nitrophenyl)-1,4-dihydropyridine-3,5-dicarboxylate dihydrochloride], the “viability (%) relative to that of a normal group (retinal ganglion cell count)” value in the assay on retinal ganglion cells [2] is on record as “significantly inhibited decrease in the retinal ganglion cell count”. Besides, in the assay with retinal ganglion cells [3], the “number of residual retinal ganglion cells in 0.25 mm of vertical retinal cross section” value is “significantly inhibited decrease in the retinal ganglion cell count”.
